pEC50, pIC50: −log10 of the molar value. Where “and” joins values, the source holds several entries; their conditions need not be identical. Identical values can stand only once. Like-named read-outs stand apart in the source and are kept apart here.
How the values were obtained:
[1] = target: IN-GCN2 interaction (6xHis-IN / GST-GCN2) (UniProt P04585+Q9P2K8); assay: biochemical; assay type: binding, HIV-1 IN; human GCN2; conditions: for IN-GCN2 interaction (%): screen, single dose 100 µM, single replicate, residual AlphaLISA signal normalized to DMSO control
Chain of IN-GCN2 interaction (6xHis-IN / GST-GCN2) (Q9P2K8 192-1024, other chains not shown): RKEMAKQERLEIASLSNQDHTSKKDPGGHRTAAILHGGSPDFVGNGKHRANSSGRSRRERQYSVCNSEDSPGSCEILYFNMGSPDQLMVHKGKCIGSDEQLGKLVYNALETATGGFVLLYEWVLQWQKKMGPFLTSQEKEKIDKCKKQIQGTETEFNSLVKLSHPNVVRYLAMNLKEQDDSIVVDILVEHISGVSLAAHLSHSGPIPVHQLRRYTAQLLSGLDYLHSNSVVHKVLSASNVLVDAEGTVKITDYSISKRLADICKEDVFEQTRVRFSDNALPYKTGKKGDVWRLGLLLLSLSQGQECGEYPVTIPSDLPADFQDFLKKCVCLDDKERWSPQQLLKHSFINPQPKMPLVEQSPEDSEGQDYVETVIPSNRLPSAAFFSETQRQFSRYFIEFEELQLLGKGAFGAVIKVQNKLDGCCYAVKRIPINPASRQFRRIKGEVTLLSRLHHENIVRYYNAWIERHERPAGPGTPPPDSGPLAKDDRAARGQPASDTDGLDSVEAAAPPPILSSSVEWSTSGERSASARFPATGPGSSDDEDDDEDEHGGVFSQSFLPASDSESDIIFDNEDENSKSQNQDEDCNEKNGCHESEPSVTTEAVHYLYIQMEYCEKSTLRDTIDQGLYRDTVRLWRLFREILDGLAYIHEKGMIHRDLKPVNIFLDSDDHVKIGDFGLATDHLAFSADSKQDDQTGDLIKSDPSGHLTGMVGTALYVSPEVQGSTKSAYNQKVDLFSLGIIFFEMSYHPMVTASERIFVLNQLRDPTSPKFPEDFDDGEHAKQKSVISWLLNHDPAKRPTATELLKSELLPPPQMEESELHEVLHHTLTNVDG

[2] = Cytotoxicity (CellTiter 96 AQueous); assay type: cell-based; conditions: human
HIV-1Laï = assay: microbe, parasite or virus in culture; assay type: cell-based; conditions: for SI (CC50/EC50): selectivity index
[3] = IC50, inhibition of IN-GCN2 interaction, SAR study, fresh dilutions from powder, at least three independent experiments
[4] = P4 MAGI CCR5+ cells, 24 h, read-out: CC50
[5] = Human immunodeficiency virus 1, MAGI, 24 h, 24 h infection, read-out: EC50
[6] = IC50, inhibition of IN-GCN2 interaction, plated compounds of the screen, dose-response 100 µM to 46 nM (Figure 1B), n = 9

Row | SMILES | pIC50 [1, 3] | IN-GCN2 interaction (%) [1] | CC50 ([2]; 24 h, read-out: CC50) [µM] | further results
1 | COc1cc2c3c(c1O)C1(C=CC(=O)C=C1)CC3N(C)CC2 (stereo not drawn) [Compound 3l] | < 4.00 |  |  | CC50 at 24 h [2, 4]: > 5 µM
2 | CC[C@@]1(O)C[C@H](O[C@H]2C[C@H](N(C)C)[C@H](O[C@H]3C[C@H](O)[C@H](O[C@H]4CCC(=O)[C@H](C)O4)[C@H](C)O3)[C@H](C)O2)c2c(cc3c(c2O)C(=O)c2c(O)cccc2C3=O)[C@H]1C(=O)OC [Compound 1k] |  | 28.46% | 0.114 | 
3 | CC(=O)[C@]1(O)Cc2c(O)c3c(c(O)c2[C@@H](O[C@H]2C[C@H](N)[C@H](O)[C@H](C)O2)C1)C(=O)c1c(O)cccc1C3=O [Compound 1d] |  |  |  | CC50 [2]: 0.04 µM
4 | COc1cc2c(cc1OC)c1c(OC)c(OC)cc3c1c1c2sc(=S)n1CC3 [Compound 3a] | 4.62 |  |  | CC50 at 24 h [2, 4]: > 5 µM
5 | CCCCCCCC(=O)OCC(=O)C1(O)Cc2c(O)c3c(c(O)c2C(OC2CC(N)C(O)C(C)O2)C1)C(=O)c1c(OC)cccc1C3=O (stereo not drawn) [Compound 1g, adriamycin octanoate] | 5.40 |  | 1.67 | pEC50 (HIV-1Laï; [5]): 6.68; SI (CC50/EC50) (HIV-1Laï): 7.9; SI (CC50/EC50) (HIV-1Laï; listed as NSC149584): > 10.1
6 | COc1cc2c3c(c1)-c1c(ccc(OC)c1O)CC3N(C)CC2 (stereo not drawn) [Compound 3i] | < 4.00 |  |  | pEC50 (HIV-1Laï; [5]): < 5.30; CC50 at 24 h [2]: > 5 µM
7 | CCC1(O)CC(OC2CC(N(C)C)C(O)C(C)O2)c2c(O)c3c(c(O)c2C1OC1CC(N(C)C)C(O)C(C)O1)C(=O)c1cccc(O)c1C3=O (stereo not drawn) [Compound 1e] |  | 17.07% | 0.724 | 
8 | COc1ccc2c(c1OC)-c1c3c(cc4c1C(C2)N(C)CC4)OCO3 (stereo not drawn) [Compound 3j] | < 4.00 |  |  | CC50 at 24 h [2]: > 5 µM
9 | COc1cc2ccc3c(c2cc1OC)N(C)C(OC)c1cc2c(cc1-3)OCO2 (stereo not drawn) [Compound 3m] | < 4.00 |  | > 5 | 
10 | CCC1(O)CC(OC2CC(N)C(O)C(C)O2)c2c(O)c3c(c(O)c2C1C(=O)OC)C(=O)c1cccc(O)c1C3=O (stereo not drawn) [Compound 1b] | 6.04 |  | > 5 | 
11 | NC(CS)C(=O)NCCNc1ccc(NCCNC(=O)C(N)CS)c2c1C(=O)c1c(O)ccc(O)c1C2=O (stereo not drawn) [Compound 2f] | 5.19 |  |  | CC50 at 24 h [2, 4]: 3.48 µM
12 | COC(=O)[C@@H]1c2cc3c(c(O)c2[C@@H](O[C@@H]2O[C@@H](C)[C@H](OC)[C@@](C)(OC)[C@H]2OC)C[C@]1(C)O)C(=O)c1c(O)cc2c(c1C3=O)O[C@@H]1O[C@@]2(C)[C@H](O)[C@@H](N(C)C)[C@@H]1O [Compound 1j] | 5.05 |  |  | CC50 at 24 h [2]: 0.311 µM
13 | COc1cc2c3c(cc4ccccc4c3c1O)N(C)CC2 [NSC785168] | 4.77 | 4.53% | > 5 | pIC50 [1, 6]: 5.24; pEC50 (HIV-1Laï; [5]): < 5.30
14 | O=C1CC(c2ccc(O)c(-c3c(O)cc4c(c3O)C(=O)CC(c3ccc(O)cc3)O4)c2)Oc2cc(O)cc(O)c21 (stereo not drawn) [Compound 2c] | < 4.00 |  |  | CC50 at 24 h [2, 4]: > 5 µM
15 | O=C1c2c(O)ccc(O)c2C(=O)c2c(NCCOCCO)ccc(NCCOCCO)c21 [Compound 2g] | 5.18 |  |  | pEC50 (HIV-1Laï; [5]): < 5.30; CC50 at 24 h [2]: > 5 µM
16 | COc1cc2c(cc1OC)-c1c(OC)c(OC)cc3c1C(C2)N(C)CC3 (stereo not drawn) [Compound 3k] | < 4.00 | 124.35% | > 5 | effect on IN-GCN2 interaction in dose-response, in words ([1]; dose-response assessment): inactive
17 | CCCCCCCCCCCCCCCCCC(=O)OCC(=O)OCC(=O)C1(O)Cc2c(O)c3c(c(O)c2C(OC2CC(N)C(O)C(C)O2)C1)C(=O)c1c(OC)cccc1C3=O (stereo not drawn) [Compound 1m] | 4.69 |  |  | CC50 at 24 h [2, 4]: > 5 µM
18 | COc1cccc2c1C(=O)c1c(O)c3c(c(O)c1C2=O)CC(O)(C(C)=O)CC3OC1CC(N(C)C)C(O)C(C)O1 (stereo not drawn) [Compound 1o] | 4.36 |  |  | CC50 at 24 h [2]: 0.256 µM
19 | CCCCC1CCCCCCc2[nH]c(C=C3N=C(c4ccc[nH]4)C=C3OC)cc21 (stereo not drawn) [NSC247562] |  | 8.97% | 3.85 | pIC50 [1, 6]: 5.84; nontoxic concentrations at which a proviral effect was seen (HIV-1Laï; Figure S5): < 200 nM

Row | SMILES | pIC50 [1, 3] | IN-GCN2 interaction (%) [1] | CC50 ([2]; 24 h, read-out: CC50) [µM] | further results
20 | CCOC(OCC)C(=O)OCC(=O)C1(O)Cc2c(O)c3c(c(O)c2C(OC2CC(N)C(O)C(C)O2)C1)C(=O)c1c(OC)cccc1C3=O (stereo not drawn) [Compound 1i] | 5.09 |  |  | pEC50 (HIV-1Laï; Human immunodeficiency virus 1, MAGI, 24 h): < 5.30; CC50 at 24 h [2]: > 5 µM
21 | S=c1[nH]c2ccccc2nc1NCc1ccccc1 [Compound 3f] | 4.08 |  |  | pEC50 (HIV-1Laï; 24 h infection, read-out: EC50): 5.63; pEC50 (HIV-1Laï; [5]): 5.62; SI (CC50/EC50) (HIV-1Laï): >2.1; CC50 at 24 h [2, 4]: > 5 µM
22 | Clc1ccc2nc3ccccc3cc2c1 [Compound 2n] | < 4.00 |  |  | CC50 at 24 h [2, 4]: > 5 µM
23 | CCC1(O)CC(OC2CC(N(C)C)C(OC3CC4OC5CC(=O)C(C)OC5OC4C(C)O3)C(C)O2)c2c(cc3c(c2O)C(=O)c2c(O)ccc(O)c2C3=O)C1C(=O)OC (stereo not drawn) [Compound 1a, cinerubin B] |  |  | > 5 | pEC50 (HIV-1Laï; Human immunodeficiency virus 1, MAGI, 24 h infection, read-out: EC50): 6.31
24 | O=C1c2c(O)ccc(O)c2C(=O)c2c(NCCO)ccc(NCCO)c21 [Compound 2e] | 5.36 |  |  | pEC50 (HIV-1Laï; [5]): < 5.30; CC50 at 24 h [2]: > 5 µM
25 | CCC1(O)CC(OC2CC(N(C)C)C(O)C(C)O2)c2c(cc3c(c2O)C(=O)c2c(O)ccc(O)c2C3=O)C1C(=O)OC (stereo not drawn) [Compound 1c] | 5.85 |  | 0.589 | 
26 | COc1cc2c(c(OC)c1OC)CC1c3c(cc4c(c3-2)OCO4)CCN1C (stereo not drawn) [Compound 3c] | 4.27 |  |  | fold decrease in activity compared to NSC785155 ([1]; IC50 ratio): 10 fold; CC50 at 24 h [2]: > 5 µM
27 | COc1cc2c(cc1OC)-c1c3c(cc4c1C(C2)N(C)CC4)OCO3 (stereo not drawn) [Compound 3g] | 4.04 |  |  | viral replication, maximum, relative to DMSO control (HIV-1Laï; dose-dependent increase (pro-viral effect)): up to 150%
28 | COc1ccc2c(c1)CC1c3c(cc4c(c3-2)OCO4)CCN1C (stereo not drawn) [Compound 3h] | < 4.00 |  | > 5 | 
29 | CCN(CC)C1CC(OC2CC(O)(C(=O)CO)Cc3c(O)c4c(c(O)c32)C(=O)c2c(OC)cccc2C4=O)OC(C)C1O (stereo not drawn) [Compound 1n] | 4.53 |  | 0.512 | 
30 | CN(C)CCCCNc1ccc(NCCCCN(C)C)c2c1C(=O)c1c(O)ccc(O)c1C2=O [Compound 2j] |  |  |  | pIC50 ([1]; read-out: IC50, inhibition of IN-GCN2 interaction, SAR study, fresh dilutions from powder, at least three independent experiments): 4.94; CC50 at 24 h [2, 4]: > 5 µM
31 | Cc1c(N)nc([C@H](CC(N)=O)NC[C@H](N)C(N)=O)nc1C(=O)N[C@H](C(=O)N[C@H](C)[C@@H](O)[C@H](C)C(=O)N[C@H](C(=O)NCCc1nc(-c2nc(C(=O)NCCCN[C@@H](C)c3ccccc3)cs2)cs1)[C@@H](C)O)[C@@H](O[C@@H]1O[C@@H](CO)[C@@H](O)[C@H](O)[C@@H]1O[C@H]1O[C@H](CO)[C@@H](O)[C@H](OC(N)=O)[C@@H]1O)c1cnc[nH]1 [NSC276382] |  | 37.70% |  | 
32 | NC(=S)c1cn(C2OC(CO)C(O)C2O)c2ncnc(N)c12 (stereo not drawn) [NSC105827] |  | 100.77% |  | 
33 | COc1cc2c(c(OC)c1OC)-c1ccc(SC)c(=O)cc1[C@@H](NC(=O)C(F)(F)F)CC2 [NSC320301] |  | 97.92% |  | 
34 | CCC1(O)CC(OC2CC(N(C)C)C(OC3CC(O)C(OC4CC(O)C(O)C(C)O4)C(C)O3)C(C)O2)c2c(cc3c(c2O)C(=O)c2c(O)ccc(O)c2C3=O)C1C(=O)OC (stereo not drawn) [NSC265211] | < 4.00 | 39.6% |  | inhibition at 100 µM ([1]; read-out: inhibition of IN-GCN2 interaction): ~60%; IN-GCN2 interaction (%) ([1]; listed as 265211): 39.59%
35 | CC(=O)OC1CCC2(C)C(=CCC3C2CCC2(C)C3CC3OC4(CCC(C)CN4)C(C)C32)C1 (stereo not drawn) [NSC96021] |  | 132.69% |  | 
36 | COC1CCC(OC2CC(C3(C)CCC4(CC(O)C(C)C(C(C)/C=C(\C)C(=O)C(C)CC(C)C(=O)O)O4)O3)OC3(OC(C4OC(O)(CO)C(C)CC4C)CC3C)C2C)OC1C (stereo not drawn) [NSC138320] |  | 102.91% and 57.85% |  | 
37 | C=C1C(=O)OC2CC(C)C3(O)CCC(=O)C3(C)CC12 (stereo not drawn) [NSC361902] |  | 90.19% |  | 
